Results from ChEMBL document CHEMBL4421717, “Antagonists and agonists of bitter taste receptors and uses thereof” (2012).
Active and inactive are the calls of the source. No cut-off for these calls is given here.

Legend:
Assay type in all cases: functional, cell-based
[1] = target: T1, Taste receptor type 2 member 50 (Homo sapiens) (UniProt P59544); assay: Agonist activity at recombinant human N-terminal rat ST3 receptor-fused TAS2R50 expressed in HEK293T cells co-expressing Galpha16gust44 assessed as effect on intracellular calcium level at 100 uM by FLIPR assay
T1 sequence (whole entry): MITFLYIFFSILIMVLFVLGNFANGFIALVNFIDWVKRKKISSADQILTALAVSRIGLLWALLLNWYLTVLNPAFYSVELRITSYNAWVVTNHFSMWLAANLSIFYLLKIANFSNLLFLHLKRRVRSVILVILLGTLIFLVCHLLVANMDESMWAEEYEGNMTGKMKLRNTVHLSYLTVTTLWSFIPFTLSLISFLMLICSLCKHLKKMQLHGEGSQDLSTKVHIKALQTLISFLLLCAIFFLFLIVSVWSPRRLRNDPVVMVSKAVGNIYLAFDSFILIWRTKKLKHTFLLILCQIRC

[2] = target: T2, Taste receptor type 2 member 46 (Homo sapiens) (UniProt P59540); assay: (§1) Competitive antagonist activity at recombinant human N-terminal rat ST3 receptor-fused TAS2R46 expressed in HEK293T cells co-expressing Galpha16gust44 assessed as inhibition strychnine-induced intracellular calcium level by measuring strychnine induced maximum signal amplitude at 30 uM by FLIPR assay (reference value: 0.42 +/- 0.09 au))
T2 sequence (whole entry): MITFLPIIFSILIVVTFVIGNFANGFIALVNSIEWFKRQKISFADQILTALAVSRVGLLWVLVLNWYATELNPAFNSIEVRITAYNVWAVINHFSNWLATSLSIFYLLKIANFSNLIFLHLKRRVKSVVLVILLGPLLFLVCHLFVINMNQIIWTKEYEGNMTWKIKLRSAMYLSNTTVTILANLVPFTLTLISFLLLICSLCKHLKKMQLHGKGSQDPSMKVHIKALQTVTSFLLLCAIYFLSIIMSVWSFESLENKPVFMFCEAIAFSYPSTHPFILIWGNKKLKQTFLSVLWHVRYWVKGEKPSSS

[3] = target: Taste receptor type 2 member 41 (Homo sapiens) (UniProt P59536); assay: Agonist activity at recombinant human N-terminal rat ST3 receptor-fused TAS2R41 expressed in HEK293T cells co-expressing Galpha16gust44 assessed as effect on intracellular calcium level at 100 uM by FLIPR assay
[4] = target: T2, Taste receptor type 2 member 46 (Homo sapiens); assay: as §1, with “100” for “30”
[5] = target: T3, Taste receptor type 2 member 43 (Homo sapiens) (UniProt P59537); assay: Agonist activity at recombinant human N-terminal rat ST3 receptor-fused TAS2R43 expressed in HEK293T cells co-expressing Galpha16gust44 assessed as effect on intracellular calcium level at 100 uM by FLIPR assay
T3 sequence (whole entry): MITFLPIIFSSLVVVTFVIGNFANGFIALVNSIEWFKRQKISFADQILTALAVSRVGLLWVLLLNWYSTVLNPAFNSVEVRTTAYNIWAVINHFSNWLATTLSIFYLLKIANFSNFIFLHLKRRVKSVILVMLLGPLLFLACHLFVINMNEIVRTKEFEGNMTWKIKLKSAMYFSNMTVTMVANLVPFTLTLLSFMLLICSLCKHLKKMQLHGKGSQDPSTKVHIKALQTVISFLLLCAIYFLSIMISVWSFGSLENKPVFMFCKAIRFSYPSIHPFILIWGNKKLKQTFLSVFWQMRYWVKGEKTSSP

[6] = target: T4, Taste receptor type 2 member 20 (Homo sapiens) (UniProt P59543); assay: Agonist activity at recombinant human N-terminal rat ST3 receptor-fused TAS2R49 expressed in HEK293T cells co-expressing Galpha16gust44 assessed as effect on intracellular calcium level at 100 uM by FLIPR assay
T4 sequence (whole entry): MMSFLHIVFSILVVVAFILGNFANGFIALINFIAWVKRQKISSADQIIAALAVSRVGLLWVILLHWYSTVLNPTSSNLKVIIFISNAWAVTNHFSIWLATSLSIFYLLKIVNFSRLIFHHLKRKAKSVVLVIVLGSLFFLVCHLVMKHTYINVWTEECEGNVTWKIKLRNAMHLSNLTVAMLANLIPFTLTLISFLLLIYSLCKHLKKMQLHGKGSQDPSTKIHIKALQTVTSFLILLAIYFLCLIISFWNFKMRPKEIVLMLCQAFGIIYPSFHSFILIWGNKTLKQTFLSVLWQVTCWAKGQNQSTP

[7] = target: Taste receptor type 2 member 19 (Homo sapiens) (UniProt P59542); assay: Agonist activity at recombinant human N-terminal rat ST3 receptor-fused TAS2R48 expressed in HEK293T cells co-expressing Galpha16gust44 assessed as effect on intracellular calcium level at 100 uM by FLIPR assay
[8] = target: Taste receptor type 2 member 45 (Homo sapiens) (UniProt P59539); assay: Agonist activity at recombinant human N-terminal rat ST3 receptor-fused TAS2R45 expressed in HEK293T cells co-expressing Galpha16gust44 assessed as effect on intracellular calcium level at 100 uM by FLIPR assay
[9] = target: Taste receptor type 2 member 7 (Homo sapiens) (UniProt Q9NYW3); assay: Activity at recombinant human N-terminal rat ST3 receptor-fused TAS2R7 expressed in HEK293T cells co-expressing Galpha16gust44 assessed as increase in quinine sulfate-induced intracellular calcium level at 100 uM by FLIPR assay
[10] = target: Taste receptor type 2 member 42 (Homo sapiens) (UniProt Q7RTR8); assay: Agonist activity at recombinant human N-terminal rat ST3 receptor-fused TAS2R42 expressed in HEK293T cells co-expressing Galpha16gust44 assessed as effect on intracellular calcium level at 100 uM by FLIPR assay
[11] = target: T2, Taste receptor type 2 member 46 (Homo sapiens); assay: as §1, with “10” for “30”
[12] = target: T5, Taste receptor type 2 member 4 (Homo sapiens) (UniProt Q9NYW5); assay: Agonist activity at recombinant human N-terminal rat ST3 receptor-fused TAS2R4 expressed in HEK293T cells co-expressing Galpha16gust44 assessed as effect on intracellular calcium level at 100 uM by FLIPR assay
T5 sequence (whole entry): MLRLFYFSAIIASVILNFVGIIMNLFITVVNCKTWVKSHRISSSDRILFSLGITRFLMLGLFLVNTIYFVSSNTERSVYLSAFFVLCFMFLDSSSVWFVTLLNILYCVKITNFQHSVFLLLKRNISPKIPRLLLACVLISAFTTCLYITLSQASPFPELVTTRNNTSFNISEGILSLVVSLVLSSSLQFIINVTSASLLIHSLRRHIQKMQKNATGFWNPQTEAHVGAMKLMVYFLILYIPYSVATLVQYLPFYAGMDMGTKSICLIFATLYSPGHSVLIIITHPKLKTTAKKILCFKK

[13] = target: T6, Taste receptor type 2 member 46 (Homo sapiens, UniProt P59540); assay: Antagonist activity at recombinant human N-terminal rat ST3 receptor-fused TAS2R46 expressed in HEK293T cells co-expressing Galpha16gust44 assessed as inhibition of 30 uM andrographolide-induced intracellular calcium level 100 uM by FLIPR assay
T6 sequence (P59540 whole entry): T2 sequence (whole entry)

Taste receptor type 2 member 19 (Homo sapiens), sequence (P59542 whole entry, the tested form may be a part): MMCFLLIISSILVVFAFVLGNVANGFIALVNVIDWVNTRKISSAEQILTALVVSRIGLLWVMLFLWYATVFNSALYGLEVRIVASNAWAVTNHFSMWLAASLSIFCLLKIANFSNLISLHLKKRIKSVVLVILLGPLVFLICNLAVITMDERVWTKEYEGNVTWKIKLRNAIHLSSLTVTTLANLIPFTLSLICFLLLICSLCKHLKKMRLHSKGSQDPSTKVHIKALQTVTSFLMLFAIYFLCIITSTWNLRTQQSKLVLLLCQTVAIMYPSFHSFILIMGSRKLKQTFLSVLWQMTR
Taste receptor type 2 member 45 (Homo sapiens), sequence (P59539 whole entry, the tested form may be a part): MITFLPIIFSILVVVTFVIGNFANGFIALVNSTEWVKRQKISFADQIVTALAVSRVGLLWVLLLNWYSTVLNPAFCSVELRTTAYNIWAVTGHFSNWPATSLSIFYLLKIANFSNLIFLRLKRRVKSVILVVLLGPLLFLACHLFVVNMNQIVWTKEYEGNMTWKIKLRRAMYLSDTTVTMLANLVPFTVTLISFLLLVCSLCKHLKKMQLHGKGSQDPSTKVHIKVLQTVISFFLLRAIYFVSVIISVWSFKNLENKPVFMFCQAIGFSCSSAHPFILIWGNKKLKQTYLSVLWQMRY
Taste receptor type 2 member 42 (Homo sapiens), sequence (Q7RTR8 whole entry, the tested form may be a part): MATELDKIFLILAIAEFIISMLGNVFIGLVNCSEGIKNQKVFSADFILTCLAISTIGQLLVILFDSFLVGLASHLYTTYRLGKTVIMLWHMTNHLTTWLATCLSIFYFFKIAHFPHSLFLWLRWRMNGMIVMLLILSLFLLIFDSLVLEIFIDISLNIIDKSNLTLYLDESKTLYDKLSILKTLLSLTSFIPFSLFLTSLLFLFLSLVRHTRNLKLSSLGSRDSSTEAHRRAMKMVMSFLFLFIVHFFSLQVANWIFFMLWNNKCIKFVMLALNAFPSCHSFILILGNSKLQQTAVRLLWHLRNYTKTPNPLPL
Taste receptor type 2 member 7 (Homo sapiens), sequence (Q9NYW3 whole entry, the tested form may be a part): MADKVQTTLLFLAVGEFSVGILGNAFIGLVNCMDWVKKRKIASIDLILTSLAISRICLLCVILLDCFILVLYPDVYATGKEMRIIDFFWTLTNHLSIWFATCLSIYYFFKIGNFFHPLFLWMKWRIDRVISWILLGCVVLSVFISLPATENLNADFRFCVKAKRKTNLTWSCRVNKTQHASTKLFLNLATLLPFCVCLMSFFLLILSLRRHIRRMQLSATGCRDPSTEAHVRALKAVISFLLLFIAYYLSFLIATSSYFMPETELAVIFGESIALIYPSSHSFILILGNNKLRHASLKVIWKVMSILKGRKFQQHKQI
Taste receptor type 2 member 41 (Homo sapiens), sequence (P59536 whole entry, the tested form may be a part): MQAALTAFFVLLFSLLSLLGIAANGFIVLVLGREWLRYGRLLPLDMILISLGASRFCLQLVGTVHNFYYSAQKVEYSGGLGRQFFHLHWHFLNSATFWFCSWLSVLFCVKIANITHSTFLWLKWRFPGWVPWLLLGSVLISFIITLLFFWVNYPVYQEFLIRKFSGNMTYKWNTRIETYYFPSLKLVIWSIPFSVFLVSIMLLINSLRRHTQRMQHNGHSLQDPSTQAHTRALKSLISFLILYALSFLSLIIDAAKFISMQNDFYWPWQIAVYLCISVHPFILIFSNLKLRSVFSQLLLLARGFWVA

SMILES	Activity [1]	Activity [2] [a.u.]	Activity [3]	Activity [4] [a.u.]	Activity [5]	Activity [6]	Activity [7]	Activity [8]	Activity [9]	Activity [10]	Activity [11] [a.u.]	Activity [12]	IC50 [13] [µM]
C/C1=C\C[C@H](O)/C(C)=C/[C@H]2OC(=O)[C@@H](C)C2CC1 (stereo partly drawn)	inactive	0.41	inactive	0.34	inactive	inactive	inactive	inactive	Active	inactive	0.4	Active	
C/C1=C\C[C@H](O)[C@@H](C)C[C@H]2OC(=O)[C@@H](C)C2CC1 (stereo partly drawn)													44.5
